# System: 565726-208-R1-J5-PDC complex spheroids, growth inhibition
# Experiment: Anticancer human tumor 565726-208-R1-J5-PDC patient-derived pancreatic adenocarcinoma cell line growth inhibition [RAS]
# Settings: for IC50: curve of first compound; for viability, T/C: stronger effect = lower value
# Description: RAS pathway inhibitors in Combinations in Complex Spheroids
# A high-throughput screen of multi-cell type tumor spheroids was designed to identify active combinations of RAS pathway inhibitors and targeted small molecules. Complex spheroids include a stromal component modeled by human endothelial cells (HUVEC) and fibroblasts modeled by human mesenchymal stem cells (MSCs). The concentration ranges selected for each drug and investigational agent were based upon clinically achievable concentrations if the clinical Cmax of the agent was known.
# Compounds. The drugs and investigational agents: abemaciclib (NSC768073), cobimetinib (NSC768068), divarasib (GDC6063, NSC841802), docetaxel (NSC628503), GDC-1971 (RLY-1971, NSC841576), gemcitabine (NSC613327), inavolisib (NSC800729), ipatasertib (NSC767898), KB-0742 (NSC834161), MRTX-1133 (NSC836407), osimertinib (NSC779217), RMC-4630 (NSC839698), RMC-6236 (NSC851965), RMC-6291 (NSC852671), Ro-3306 (NSC812927), sapanisertib (NSC764658), SN-38 (NSC673596), staurosporine (NSC755774), SY5609 (NSC837396), and tovorafenib (DAY101, NSC766906), were obtained from the National Cancer Institute (NCI) Developmental Therapeutics Program Chemical Repository. The FDA-approved anticancer drug set is available from the NCI Developmental Therapeutics Program. […] The stock solutions were prepared in dimethyl sulfoxide (DMSO, Sigma-Aldrich, St. Louis, MO, cat. D2650) at 800-fold the tested concentration and stored at -70 degrees C prior to their use. All drugs and investigational agents were tested over a range starting from a high concentration at or near the clinical Cmax and decreasing in half-log increments. If the clinical Cmax for an agent had not been determined, the highest concentration tested was 10 microM.
# Cell Culture. All cells were maintained in an incubator at 37 degrees C and 5% CO2 with 95% humidity. The PDC lines were cultured according to standard operating procedures established by the NCI PDMR. All PDCs were thawed and cultured in Matrigel-coated flasks prepared with a working solution of 1X Ham's F-12 nutrient mix, without supplementation (Invitrogen, Waltham, MA, cat. 11765054), 100 U/mL penicillin-streptomycin (Invitrogen, cat. 15140122), and 2.5% Matrigel (Corning Inc., Corning, NY, cat. 354248) for the first three passages. The 362531-283-R-J2-PDC and 782815-120-R-J1-PDC lines were cultured in 6C/Colon 1B media, which includes advanced DMEM/F-12 (Thermo Fisher Scientific, cat. 12634028), 10 mM HEPES (Thermo Fisher Scientific, cat. 15630080), 1X GlutaMAX supplement (Thermo Fisher Scientific, cat. 35050061), 0.1 mg/mL primocin (InvivoGen, San Diego, CA, cat. ant-pm-2), 10% defined fetal bovine serum, heat inactivated (HyClone Laboratories Inc., Logan, UT, cat. SH30070.03HI), 50% L-WRN conditioned media (ATCC, cat. CRL-3276), 1.25 mM N-Acetyl-L-cysteine (Sigma-Aldrich, cat. A9165), 10 mM nicotinamide (Sigma-Aldrich, cat. N0636), 1X B-27 supplement (Thermo Fisher Scientific, cat. 17504044), 1X N-2 supplement (Thermo Fisher Scientific, cat. 17502048), 50 ng/mL human EGF (Thermo Fisher Scientific, cat. PHG0311), and 10 microM Y-27632 dihydrochloride (Tocris Bioscience, cat. 1254). The K12877-001-R-J1-PDC line was cultured in 6I media, which includes all 6C/Colon 1B media plus 10 ng/mL human FGF-10 (PeproTech, cat. 100-26), 1 ng/mL human FGF-2 (PeproTech, cat. 100-18B), 1 µM prostaglandin E2 (Tocris Bioscience, cat. 2296), […] hydrocortisone (Sigma-Aldrich, cat. H4001), and […] bovine insulin (Sigma-Aldrich, cat. I6634). The K86415-001-R-J1-PDC line was cultured in 6D media, which includes all 6C/Colon 1B media components minus the L-WRN conditioned media. The 485176-168-R4-J1-PDC was cultured in PANC media, which includes all 6C/Colon 1B media plus 100 ng/mL human FGF-10 (PeproTech, cat. 100-26), 500 nM SB-431542 (Selleckchem, cat. S1067), and 10 nM gastrin (Tocris Bioscience, cat. 3006). […]
# [1] = second compound 0.000949 µM, first compound 0.0316 µM
# [2] = second compound 0.000949 µM, first compound 0.1 µM
# [3] = second compound 0.000949 µM, first compound 0.316 µM
# [4] = second compound 0.000949 µM, first compound 1 µM
# [5] = second compound 0.003 µM, first compound 0.0316 µM
# [6] = second compound 0.003 µM, first compound 0.1 µM
# [7] = second compound 0.003 µM, first compound 0.316 µM
# [8] = second compound 0.003 µM, first compound 1 µM
# [9] = second compound 0.00949 µM, first compound 0.0316 µM
# [10] = second compound 0.00949 µM, first compound 0.1 µM
# [11] = second compound 0.00949 µM, first compound 0.316 µM
# [12] = second compound 0.00949 µM, first compound 1 µM
# [13] = second compound 0.03 µM, first compound 0.0316 µM
# [14] = second compound 0.03 µM, first compound 0.1 µM
# [15] = second compound 0.03 µM, first compound 0.316 µM
# [16] = second compound 0.03 µM, first compound 1 µM
# [17] = second compound 0.0949 µM, first compound 0.0316 µM
# [18] = second compound 0.0949 µM, first compound 0.1 µM
# [19] = second compound 0.0949 µM, first compound 0.316 µM
# [20] = second compound 0.0949 µM, first compound 1 µM
# [21] = second compound 0.3 µM, first compound 0.0316 µM
# [22] = second compound 0.3 µM, first compound 0.1 µM
# [23] = second compound 0.3 µM, first compound 0.316 µM
# [24] = second compound 0.3 µM, first compound 1 µM
# 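Note: spheroids exposed to compounds for seven days before readout.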
# 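Throughout, for viability, T/C: 100% = DMSO vehicle control viability.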
compound,measurement,setting,value
Nc1ccn(C2OC(CO)C(O)C2(F)F)c(=O)n1 (centres undefined) + CCn1c(-c2cccnc2C(C)OC)c2c3cc(ccc31)N1CCOC(CC(NC(=O)C(C(C)C)N(C)C(=O)C3(F)CCN(C(=O)C#CC(C)(C)N(C)C)CC3)C(=O)N3CCCC(N3)C(=O)OCC(C)(C)C2)C1,IC50,second compound 0.000949 µM,82.4 nM
same,IC50,second compound 0.003 µM,77.2 nM
same,IC50,second compound 0.00949 µM,72.3 nM
same,IC50,second compound 0.03 µM,70.4 nM
same,IC50,second compound 0.0949 µM,77.2 nM
same,IC50,second compound 0.3 µM,44 nM
same,"viability, T/C","second compound 0.000949 µM, first compound 0.00316 µM",107%
same,"viability, T/C","second compound 0.000949 µM, first compound 0.01 µM",91.8%
same,"viability, T/C",[1],68.1%
same,"viability, T/C",[2],47%
same,"viability, T/C",[3],32.3%
same,"viability, T/C",[4],27.9%
same,"viability, T/C","second compound 0.003 µM, first compound 0.00316 µM",110%
same,"viability, T/C","second compound 0.003 µM, first compound 0.01 µM",88.6%
same,"viability, T/C",[5],69.2%
same,"viability, T/C",[6],40.9%
same,"viability, T/C",[7],38.6%
same,"viability, T/C",[8],29.6%
same,"viability, T/C","second compound 0.00949 µM, first compound 0.00316 µM",97.5%
same,"viability, T/C","second compound 0.00949 µM, first compound 0.01 µM",91.2%
same,"viability, T/C",[9],66%
same,"viability, T/C",[10],42.5%
same,"viability, T/C",[11],36.1%
same,"viability, T/C",[12],26.2%
same,"viability, T/C","second compound 0.03 µM, first compound 0.00316 µM",90.1%
same,"viability, T/C","second compound 0.03 µM, first compound 0.01 µM",90.2%
same,"viability, T/C",[13],62.7%
same,"viability, T/C",[14],43.3%
same,"viability, T/C",[15],33.6%
same,"viability, T/C",[16],22.8%
same,"viability, T/C","second compound 0.0949 µM, first compound 0.00316 µM",85.1%
same,"viability, T/C","second compound 0.0949 µM, first compound 0.01 µM",88.4%
same,"viability, T/C",[17],71.9%
same,"viability, T/C",[18],43%
same,"viability, T/C",[19],31.4%
same,"viability, T/C",[20],24.4%
same,"viability, T/C","second compound 0.3 µM, first compound 0.00316 µM",81.8%
same,"viability, T/C","second compound 0.3 µM, first compound 0.01 µM",75.4%
same,"viability, T/C",[21],52.6%
same,"viability, T/C",[22],37.6%
same,"viability, T/C",[23],30.8%
same,"viability, T/C",[24],21.2%
Cc1nc(N2CCC3(CC2)COC(C)C3N)c(CO)nc1Sc1ccnc(N)c1Cl (centres undefined) + CCn1c(-c2cccnc2C(C)OC)c2c3cc(ccc31)N1CCOC(CC(NC(=O)C(C(C)C)N(C)C(=O)C3(F)CCN(C(=O)C#CC(C)(C)N(C)C)CC3)C(=O)N3CCCC(N3)C(=O)OCC(C)(C)C2)C1,IC50,second compound 0.000949 µM,> 10000 nM
same,IC50,second compound 0.003 µM,> 10000 nM
same,IC50,second compound 0.00949 µM,> 10000 nM
same,IC50,second compound 0.03 µM,> 10000 nM
same,IC50,second compound 0.0949 µM,> 10000 nM
same,IC50,second compound 0.3 µM,> 10000 nM
same,"viability, T/C",[1],95.1%
same,"viability, T/C",[2],92.8%
same,"viability, T/C",[3],84.9%
same,"viability, T/C",[4],73.7%
same,"viability, T/C","second compound 0.000949 µM, first compound 3.16 µM",80%
same,"viability, T/C","second compound 0.000949 µM, first compound 10 µM",66.5%
same,"viability, T/C",[5],104%
same,"viability, T/C",[6],97%
same,"viability, T/C",[7],86.6%
same,"viability, T/C",[8],77%
same,"viability, T/C","second compound 0.003 µM, first compound 3.16 µM",71%
same,"viability, T/C","second compound 0.003 µM, first compound 10 µM",70.6%
same,"viability, T/C",[9],83.4%
same,"viability, T/C",[10],97.3%
same,"viability, T/C",[11],86.3%
same,"viability, T/C",[12],76.5%
same,"viability, T/C","second compound 0.00949 µM, first compound 3.16 µM",79.7%
same,"viability, T/C","second compound 0.00949 µM, first compound 10 µM",71.6%
same,"viability, T/C",[13],95.5%
same,"viability, T/C",[14],87.3%
same,"viability, T/C",[15],92.8%
same,"viability, T/C",[16],89.3%
same,"viability, T/C","second compound 0.03 µM, first compound 3.16 µM",81.5%
same,"viability, T/C","second compound 0.03 µM, first compound 10 µM",69.6%
same,"viability, T/C",[17],81%
same,"viability, T/C",[18],98.2%
same,"viability, T/C",[19],85.1%
same,"viability, T/C",[20],69.8%
same,"viability, T/C","second compound 0.0949 µM, first compound 3.16 µM",77.4%
same,"viability, T/C","second compound 0.0949 µM, first compound 10 µM",78.8%
same,"viability, T/C",[21],91.2%
same,"viability, T/C",[22],79.8%
same,"viability, T/C",[23],79.4%
same,"viability, T/C",[24],69.8%
same,"viability, T/C","second compound 0.3 µM, first compound 3.16 µM",70.2%
same,"viability, T/C","second compound 0.3 µM, first compound 10 µM",59.2%

# — PubChem BioAssay AID2060899 (Molecular Pharmacology Branch, DTP, NCI, 2025)
